The text below walks through data of patent US20240182489A1, “New 5,6,7,8-Tetrahydropyrido[4',3':4,5]thieno[2,3-d]pyrimidin-4(3H)-one Derivatives as Sigma Ligands” (ACONDICIONAMIENTO TARRASENSE, priority 2021, published 2024).

SMILES strings stand for the structures.

This experiment has as its target T1, human σ1 receptor (Homo sapiens, UniProt Q99720).
T1 construct: expressed in transfected cells; host or cells: HEK-293 (membranes)
Briefly: Human σ1 receptor radioligand assay. It counts as binding. Conditions: [3H](+)-pentazocine radioligand, transfected HEK-293 membranes.

T1 sequence (Q99720 whole entry): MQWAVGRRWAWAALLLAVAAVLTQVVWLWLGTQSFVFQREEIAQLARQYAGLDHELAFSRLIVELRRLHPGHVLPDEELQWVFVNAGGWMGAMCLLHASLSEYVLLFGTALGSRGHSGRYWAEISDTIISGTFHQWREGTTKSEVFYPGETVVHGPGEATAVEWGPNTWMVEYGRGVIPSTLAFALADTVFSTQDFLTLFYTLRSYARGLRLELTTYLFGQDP

In turn, `C[C@H](c1cccc(C#N)c1)n1cnc2sc3c(c2c1=O)CCNC3` [Example 14, (R)-3-(1-(4-Oxo-5,6,7,8-tetrahydropyrido[4′,3′:4,5]thieno[2,3-d]pyrimidin-3(4H)-yl)ethyl)benzonitrile] showed a Ki below 100 nM.
Regarding `C[C@H](c1ccc(F)cc1)n1cnc2sc3c(c2c1=O)CNCC3` [Example 17, (R)-3-(1-(4-Fluorophenyl)ethyl)-5,6,7,8-tetrahydropyrido[3′,4′:4,5]thieno[2,3-d]pyrimidin-4(3H)-one], the Ki is above 500 nM.
`C[C@@H](c1ccc(C#N)c(F)c1)n1cnc2sc3c(c2c1=O)CCNC3` [Example 19, (S)-2-Fluoro-4-(1-(4-oxo-5,6,7,8-tetrahydropyrido[4′,3′:4,5]thieno[2,3-d]pyrimidin-3(4H)-yl)ethyl)benzonitrile] displayed a Ki below 500 nM.
Regarding `C[C@H](c1ccc(C#N)c(F)c1)n1cnc2sc3c(c2c1=O)CCNC3` [Example 20, (R)-2-fluoro-4-(1-(4-oxo-5,6,7,8-tetrahydropyrido[4′,3′:4,5]thieno[2,3-d]pyrimidin-3(4H)-yl)ethyl)benzonitrile], the Ki is above 500 nM.
The result for `Cc1nc(-c2ccc(C(C)n3cnc4sc5c(c4c3=O)CCNC5)cc2)no1` (centres unmarked) [Example 24, 3-(1-(4-(5-Methyl-1,2,4-oxadiazol-3-yl)phenyl)ethyl)-5,6,7,8-tetrahydropyrido[4′,3′:4,5]thieno[2,3-d]pyrimidin-4(3H)-one] reads above 500 nM.
The result for `C[C@@H](c1ccc(F)cc1Cl)n1cnc2sc3c(c2c1=O)CCNC3` [Example 25, (S)-3-(1-(2-Chloro-4-fluorophenyl)ethyl)-5,6,7,8-tetrahydropyrido[4′,3′:4,5]thieno[2,3-d]pyrimidin-4(3H)-one] reads below 500 nM.
The result for `C[C@H](c1ccc(F)cc1Cl)n1cnc2sc3c(c2c1=O)CCNC3` [Example 26, (R)-3-(1-(2-chloro-4-fluorophenyl)ethyl)-5,6,7,8-tetrahydropyrido[4′,3′:4,5]thieno[2,3-d]pyrimidin-4(3H)-one] reads above 500 nM; that for `C[C@@H](c1cc(F)cc(Cl)c1)n1cnc2sc3c(c2c1=O)CCNC3` [Example 27, (S)-3-(1-(3-Chloro-5-fluorophenyl)ethyl)-5,6,7,8-tetrahydropyrido[4′,3′:4,5]thieno[2,3-d]pyrimidin-4(3H)-one], below 100 nM; that for `C[C@H](c1cc(F)cc(Cl)c1)n1cnc2sc3c(c2c1=O)CCNC3` [Example 28, (R)-3-(1-(3-chloro-5-fluorophenyl)ethyl)-5,6,7,8-tetrahydropyrido[4′,3′:4,5]thieno[2,3-d]pyrimidin-4(3H)-one], below 100 nM.
For the compound `C[C@@H](c1cc(Cl)ccc1F)n1cnc2sc3c(c2c1=O)CCNC3` [Example 29, (S)-3-(1-(5-Chloro-2-fluorophenyl)ethyl)-5,6,7,8-tetrahydropyrido[4′,3′:4,5]thieno[2,3-d]pyrimidin-4(3H)-one], the inhibition constant (Ki) is below 500 nM.
The result for `C[C@H](c1cc(F)cc(C#N)c1)n1cnc2sc3c(c2c1=O)CCNC3` [Example 30, (R)-3-Fluoro-5-(1-(4-oxo-5,6,7,8-tetrahydropyrido[4′,3′:4,5]thieno[2,3-d]pyrimidin-3(4H)-yl)ethyl)benzonitrile] reads below 100 nM.
